# Assay results from patent US20250263370A1 (Tay Therapeutics Limited, priority 2022, published 2025).
# Values joined by “and” are separate entries in the source; they are usually repeats but may differ in a detail not shown here. Equal values may be shown once. Read-outs that look alike come from different tables or passages of the source.
# Experiment: Pharmacokinetics and plasma concentration of Example 101 in Lewis rats after oral administration (CIA study)
# Type: in vivo, Lewis rat
# Settings: oral, oral; for concentration at 0.5 h / concentration at 1 h / concentration at 2 h / concentration at 4 h / concentration at 10 h / concentration at 12 h / concentration at 0.25 h / concentration at 8 h / concentration at 14 h / concentration at 24 h / concentration at 21 day / AUC(0-inf) / AUC(0-t) / half-life / Cmax / MRT inf / Tmax: Lewis, rat, plasma; for concentration at 0.5 h / concentration at 1 h / concentration at 2 h / concentration at 4 h / concentration at 10 h / concentration at 12 h / concentration at 0.25 h / concentration at 8 h / concentration at 14 h / concentration at 24 h / AUC(0-inf) / AUC(0-t) / half-life / Cmax / MRT inf / Tmax: 10 mg/kg; for concentration at 21 day: 30 mg/kg, Day 21, Group 7 (CIA); for AUC(0-inf) / AUC(0-t) / half-life / Cmax / MRT inf / Tmax: po; for Cmax: read-out: Cmax; for MRT inf: read-out: MRTInf—obs; for Tmax: read-out: Tmax
# [1] = day 0, 10 mg/kg, read-out: Mean Concentration
# [2] = day 20, 10 mg/kg, read-out: Mean Concentration
# [3] = day 0, 10 mg/kg, per test subject
# [4] = day 20, 10 mg/kg, per test subject
smiles,measurement,setting,value
"CNC(=O)c1[nH]c(C(=O)NC2CCC2)cc1O[C@@H](C)c1ccccc1 (stereo in doubt) [Example 101, N^5-cyclobutyl-N^2-methyl-3-(1-phenylethoxy)-1H-pyrrole-2,5-dicarboxamide]",concentration at 0.5 h,"day 20, 10 mg/kg, 0.5 h, per test subject, read-out: Plasma concentration",1660 ng/mL
same,concentration at 1 h,"day 20, 10 mg/kg, 1 h, per test subject, read-out: Plasma concentration",1600 ng/mL
same,concentration at 2 h,"day 20, 10 mg/kg, 2 h, per test subject, read-out: Plasma concentration",841 ng/mL
same,concentration at 4 h,"day 20, 10 mg/kg, 4 h, per test subject, read-out: Plasma concentration",452 ng/mL
same,concentration at 10 h,"day 20, 10 mg/kg, 10 h, per test subject, read-out: Plasma concentration",1170 ng/mL
same,concentration at 12 h,"day 20, 10 mg/kg, per test subject, read-out: Plasma concentration",258 ng/mL
same,concentration at 0.25 h,[1],502 ng/mL
same,concentration at 0.5 h,"day 0, 10 mg/kg, 0.5 h, read-out: Mean Concentration",706 ng/mL
same,concentration at 1 h,"day 0, 10 mg/kg, 1 h, read-out: Mean Concentration",1270 ng/mL
same,concentration at 2 h,"day 0, 10 mg/kg, 2 h, read-out: Mean Concentration",1240 ng/mL
same,concentration at 4 h,"day 0, 10 mg/kg, 4 h, read-out: Mean Concentration",997 ng/mL
same,concentration at 8 h,"day 0, 10 mg/kg, 8 h, read-out: Mean Concentration",148 ng/mL
same,concentration at 10 h,"day 0, 10 mg/kg, 10 h, read-out: Mean Concentration",1930 ng/mL
same,concentration at 12 h,[1],799 ng/mL
same,concentration at 14 h,[1],439 ng/mL
same,concentration at 24 h,"day 0, 10 mg/kg",57 ng/mL
same,concentration at 0.25 h,[2],1410 ng/mL
same,concentration at 0.5 h,"day 20, 10 mg/kg, 0.5 h, read-out: Mean Concentration",1650 ng/mL
same,concentration at 1 h,"day 20, 10 mg/kg, 1 h, read-out: Mean Concentration",1640 ng/mL
same,concentration at 2 h,"day 20, 10 mg/kg, 2 h, read-out: Mean Concentration",1140 ng/mL
same,concentration at 4 h,"day 20, 10 mg/kg, 4 h, read-out: Mean Concentration",494 ng/mL
same,concentration at 8 h,"day 20, 10 mg/kg, 8 h, read-out: Mean Concentration",169 ng/mL
same,concentration at 10 h,"day 20, 10 mg/kg, 10 h, read-out: Mean Concentration",1450 ng/mL
same,concentration at 12 h,[2],406 ng/mL
same,concentration at 14 h,[2],138 ng/mL
same,concentration at 24 h,"day 20, 10 mg/kg",25 ng/mL
same,concentration at 21 day,"per animal, read-out: Plasma Concentration",2290 ng/mL
same,concentration at 21 day,read-out: Mean Plasma Concentration,1580 ng/mL
same,AUC(0-inf),"Lewis rats, day 20, mean",10700 ng·h/mL
same,AUC(0-t),"Lewis rats, day 20, mean",10600 ng·h/mL
same,half-life,"Lewis rats, day 20, mean",3.28 h
same,Cmax,"Lewis rats, day 20, mean",1710 ng/mL
same,MRT inf,"Lewis rats, day 20, mean",6.66 h
same,Tmax,"Lewis rats, day 20, mean",0.67 h
same,AUC(0-inf),"day 0, 10 mg/kg, Mean",15400 ng·h/mL
same,AUC(0-t),"day 0, 10 mg/kg, Mean",15000 ng·h/mL
same,half-life,"day 0, 10 mg/kg, Mean",3.22 h
same,Cmax,"day 0, 10 mg/kg, Mean",1980 ng/mL
same,MRT inf,"day 0, 10 mg/kg, Mean",8.61 h
same,Tmax,"day 0, 10 mg/kg, Mean",7.3 h
same,AUC(0-inf),[3],14300 ng·h/mL
same,AUC(0-t),[3],14300 ng·h/mL
same,Cmax,[3],1880 ng/mL
same,MRT inf,[3],7.64 h
same,AUC(0-inf),[4],8500 ng·h/mL
same,AUC(0-t),[4],8420 ng·h/mL
same,half-life,[4],3.46 h
same,Cmax,[4],1660 ng/mL
same,MRT inf,[4],6.09 h
same,Tmax,[4],0.5 h
same,Plasma concentration,"day 0, 10 mg/kg, 0.5 h, per test subject",673 ng/mL and 707 ng/mL
same,Plasma concentration,"day 0, 10 mg/kg, 1 h, per test subject",1160 ng/mL and 1550 ng/mL
same,Plasma concentration,"day 0, 10 mg/kg, 2 h, per test subject",997 ng/mL and 1610 ng/mL
same,Plasma concentration,"day 0, 10 mg/kg, 4 h, per test subject",1060 ng/mL and 760 ng/mL
same,Plasma concentration,"day 0, 10 mg/kg, 8 h, per test subject",107 ng/mL and 147 ng/mL
same,Plasma concentration,"day 0, 10 mg/kg, 10 h, per test subject",2460 ng/mL and 1460 ng/mL
